Values after ≈ are worked out from the molar mass of the structure shown.
What was measured:
Candida pseudotropic = experiment: minimal inhibitory concentration, proliferating fungi; assay type: cell-based
Excerpt: (§1) As a medium Saboroud medium was employed.

Candida parapsilosis = experiment: as above; assay type: cell-based; details: Lodderomyces parapsilosis
Excerpt: as §1

Candida valida = experiment: as above; assay type: cell-based; details: Pichia membranifaciens
Excerpt: as §1

Candida vini = experiment: as above; assay type: cell-based; details: Kregervanrija fluxuum
Excerpt: as §1

Candida lipolytic = experiment: as above; assay type: cell-based
Excerpt: as §1

Candida benhamii = experiment: as above; assay type: cell-based
Excerpt: as §1

Candida humicola = experiment: as above; assay type: cell-based; details: Vanrija humicola
Excerpt: as §1

Candida guilliermondii = experiment: as above; assay type: cell-based; details: Meyerozyma guilliermondii
Excerpt: as §1

LD50, intraperitoneal = details: mouse, in vivo, ip, intraperitoneally
Excerpt: LD50 of N-pheny-3-cyclohexyl-sulfonyl-pyrrolidine-2,3-dione when applied intraperitoneally

Which MIC (Candida pseudotropic; 24 hours) does the source give for `Cc1ccc(N2C(=O)CC(S(=O)(=O)C3CCCCC3)C2=O)cc1` (stereo not drawn) here?
Its MIC is 2.5 µg/mL (≈ 7.45 µM).

What about the MIC (Candida pseudotropic; 48 hours) of the same compound?
The MIC was 10 µg/mL (≈ 29.8 µM).

What about the MIC (Candida parapsilosis; 24 hours) of the same compound?
The MIC was 10 µg/mL (≈ 29.8 µM).

What about the MIC (Candida parapsilosis; 48 hours) of the same compound?
Its MIC is 50 µg/mL (≈ 149 µM).

And the MIC (Candida valida; 24 hours)?
Its MIC is 5 µg/mL (≈ 14.9 µM).

What about the MIC (Candida valida; 48 hours) of the same compound?
The MIC was 10 µg/mL (≈ 29.8 µM).

And the MIC (Candida vini; 24 hours)?
The MIC was 1 µg/mL (≈ 2.98 µM).

What about the MIC (Candida vini; 48 hours) of the same compound?
The MIC was 5 µg/mL (≈ 14.9 µM).

And the MIC (Candida lipolytic; 24 hours)?
Its MIC is 5 µg/mL (≈ 14.9 µM).

And the MIC (Candida lipolytic; 48 hours)?
The MIC was 10 µg/mL (≈ 29.8 µM).

And the MIC (Candida benhamii; 24 hours)?
Its MIC is 25 µg/mL (≈ 74.5 µM).

What about the MIC (Candida benhamii; 48 hours) of the same compound?
The MIC was 75 µg/mL (≈ 224 µM).

What about the MIC (Candida humicola; 24 hours) of the same compound?
Its MIC is 5 µg/mL (≈ 14.9 µM).

What about the MIC (Candida humicola; 48 hours) of the same compound?
The MIC was 25 µg/mL (≈ 74.5 µM).

What about the MIC (Candida guilliermondii; 24 hours) of the same compound?
The MIC was 5 µg/mL (≈ 14.9 µM).

What about the MIC (Candida guilliermondii; 48 hours) of the same compound?
Its MIC is 10 µg/mL (≈ 29.8 µM).

Which LD50 (LD50, intraperitoneal; female mice) does the source give for `O=C1CC(S(=O)(=O)C2CCCCC2)C(=O)N1c1ccccc1` (stereo not drawn) [1-Phenyl-3-cyclohexyl-sulfonyl-pyrrolidine-2,5-dione] here?
Its LD50 is 382 mg/kg.

What about the LD50 (LD50, intraperitoneal; male mice) of the same compound?
Its LD50 is 461 mg/kg.
